Values after ≈ are worked out from the molar mass of the structure shown. Where two headings read alike, the source gives them in different places.
Columns and labels:
Assay type in all cases: cell-based
[1] = system: P. falciparum; test: In vitro antimalarial activity / SAR data, clone not stated; details: 24 versus 52
Text: (§1) The analogs have been segregated arbitrarily here into those compounds in which the tetracyclic skeleton is intact (Table 2) and various ring-cleaved analogs (Table 3). The activities of the conventional malaria therapeutics chloroquine, mefloquine, and pyrimethamine is included for comparison.

[2] = system: P. falciparum W-2 clone; test: In vitro antimalarial activity, P. falciparum W-2 clone; details: for IC50: Plasmodium falciparum; for times as potent as QHS against the W-2 clone: relative to QHS
Text: as §1

[3] = system: P. falciparum D-6 clone; test: In vitro antimalarial activity, P. falciparum D-6 clone; details: for IC50: Plasmodium falciparum; for times as potent as QHS against the D-6 clone: relative to QHS
Text: as §1

[4] = Table 2, W-2 clone, drug-resistant strains of P. falciparum, read-out: IC50 W-2 clone
[5] = Table 2, W-2 clone, drawing 57 (artemisinin) = 100
[6] = Table 2, D-6 clone, drug-resistant strains of P. falciparum, read-out: IC50 D-6 clone
[7] = Table 2, D-6 clone, drawing 57 (artemisinin) = 100
[8] = Table 3, tricyclic analogs, W-2 clone, read-out: In vitro IC50 W-2 clone
[9] = Table 3, tricyclic analogs, W-2 clone
[10] = Table 3, tricyclic analogs, D-6 clone, read-out: In vitro IC50 D-6 clone
[11] = Table 3, tricyclic analogs, D-6 clone

Compound | IC50 [2, 4] | Relative potency (W-2 clone) [2, 5] | IC50 [3, 6] | Relative potency (D-6 clone) [3, 7] | other results
CCC1(CC)OO[C@]23CCCC[C@H]2[C@@H](C)C(=O)O[C@@H]3O1 (relative stereo) [compound 52] |  |  |  |  | activity change by additional alkyl groups in the vicinity of the peroxy group [1]: reduced activity substantially
C[C@@]12CC[C@H]3CCC[C@H]4CC(=O)O[C@H](O1)[C@@]34OO2 (relative stereo) [compound 4580, (±)-6,9-desmethylartemisinin] | 3.92 ng/mL (≈ 15.4 nM) | 48 | 33.7 ng/mL (≈ 133 nM) | 12 | 
CCC1(CC)OO[C@]23CCCC[C@H]2[C@@H](C)C(=O)O[C@@H]3O1 (relative stereo) [compound 4583] |  |  |  |  | IC50 [2, 8]: 74.2 ng/mL (≈ 261 nM); Relative potency (W-2 clone) [2, 9]: 3; IC50 [3, 10]: 29.7 ng/mL (≈ 105 nM); Relative potency (D-6 clone) [3, 11]: 15
O=C1C[C@@H]2CCC[C@@H]3C[C@H]4OO[C@]32[C@H](O1)O4 (relative stereo) [compound 4589, Octahydro-3,11-epoxy-11H-pyrano[4.3-j]-1,2-benzodioxan-9(3H) -one] | 88.7 ng/mL (≈ 392 nM) | 2 | 129 ng/mL (≈ 572 nM) | 2 | 
CCCC[C@H]1C(=O)O[C@@H]2OC(C)(C)OO[C@@]23CCCC[C@@H]13 (relative stereo) [compound 4590, 7-Butyl-3,3-dimethyl-4aH,6H-hexahydro-1,2,4-trioxino[6.5-j] benzopyran-6-one] |  |  |  |  | IC50 [2, 8]: 11.8 ng/mL (≈ 39.5 nM); Relative potency (W-2 clone) [2, 9]: 7; IC50 [3, 10]: 13.9 ng/mL (≈ 46.8 nM); Relative potency (D-6 clone) [3, 11]: 5
CC1(C)OO[C@]23CCCC[C@H]2CC(=O)O[C@@H]3O1 (relative stereo) [compound 4593, (±)-Hexahydro-3,3-dimethyl-4aH,6H-1,2,4-trioxino-[6.5-j][2] benzopyran-6-one] |  |  |  |  | IC50 [2, 8]: 178 ng/mL (≈ 735 nM); Relative potency (W-2 clone) [2, 9]: 0.5; IC50 [3, 10]: 189 ng/mL (≈ 779 nM); Relative potency (D-6 clone) [3, 11]: 0.4
C[C@@H]1CC[C@H]2[C@@H](C)C(=O)O[C@@H]3O[C@@]4(C)CC[C@@H]1[C@]32OO4 [(+)-Artemisinin, reference compound] | 2.11 ng/mL (≈ 7.47 nM) | 100 | 4.44 ng/mL (≈ 15.7 nM) | 100 | 
CCN(CC)CCCC(C)Nc1ccnc2cc(Cl)ccc12 (stereo not shown) [Chloroquine, reference compound] |  | 7 |  | 83 | IC50 ([2]; read-out: IC50 W-2 clone): 31.7 ng/mL (≈ 99.1 nM); IC50 ([3]; read-out: IC50 D-6 clone): 5.33 ng/mL (≈ 16.7 nM)
OC(c1cc(C(F)(F)F)nc2c(C(F)(F)F)cccc12)C1CCCCN1 (stereo not shown) [Mefloquine, reference compound] | 2.4 ng/mL (≈ 6.34 nM) | 88 | 43.7 ng/mL (≈ 116 nM) | 10 | 
C[C@@H]1CC[C@H]2C(C)(C)C(=O)O[C@@H]3O[C@@]4(C)CC[C@@H]1[C@]32OO4 [compound 2800, (+)-Octahydro-3,12-epoxy-3,6,9,9-tetramethyl-12H-pyrano [4.3-j]-1,2-benzo dioxepin-10(3H)-one] | 25.5 ng/mL (≈ 86.1 nM) | 0.63 | 20.9 ng/mL (≈ 70.5 nM) | 2.1 | 
C[C@@H]1CC[C@H]2CC(=O)N(Cc3ccccc3)[C@@H]3O[C@@]4(C)CC[C@@H]1[C@@]23OO4 [compound 2803] | 0.07 ng/mL (≈ 0.196 nM) | 171 | 0.45 ng/mL (≈ 1.26 nM) | 149 | 
C[C@@H]1CC[C@H]2CC(=O)N(CC(=O)O)[C@@H]3O[C@@]4(C)CC[C@@H]1[C@@]23OO4 [compound 2804] |  |  | 122 ng/mL (≈ 376 nM) | 5.5 | 
C[C@@H]1CC[C@H]2[C@@H](C)C(=O)O[C@@H]3OC(C)(C)OO[C@@]32C1 [compound 2816] |  |  |  |  | IC50 [2, 8]: 1.46 ng/mL (≈ 5.4 nM); Relative potency (W-2 clone) [2, 9]: 75; IC50 [3, 10]: 1.29 ng/mL (≈ 4.77 nM); Relative potency (D-6 clone) [3, 11]: 108
CCCCCC[C@H]1C(=O)O[C@@H]2O[C@@]3(C)CC[C@H]4[C@H](C)CC[C@@H]1[C@@]24OO3 [compound 2817] | 0.02 ng/mL (≈ 0.0567 nM) | 550 | 0.03 ng/mL (≈ 0.0851 nM) | 467 | 
CCCCCCCCCCCCCC[C@H]1C(=O)O[C@@H]2O[C@@]3(C)CC[C@H]4[C@H](C)CC[C@@H]1[C@@]24OO3 [compound 2818] | 63.9 ng/mL (≈ 138 nM) | .0017 | 81.3 ng/mL (≈ 175 nM) | .0017 | 
CC(C)[C@H]1C(=O)O[C@@H]2O[C@@]3(C)CC[C@H]4[C@H](C)CC[C@@H]1[C@@]24OO3 [compound 2820] | 0.58 ng/mL (≈ 1.87 nM) | 84 | 0.27 ng/mL (≈ 0.87 nM) | 203 | 
C[C@@H]1CC[C@H]2[C@@H](CCCc3ccccc3)C(=O)O[C@@H]3O[C@@]4(C)CC[C@@H]1[C@]32OO4 [compound 2821] | 0.11 ng/mL (≈ 0.285 nM) | 445 | 0.09 ng/mL (≈ 0.233 nM) | 611 | 

Compound | IC50 [2, 4] | Relative potency (W-2 clone) [2, 5] | IC50 [3, 6] | Relative potency (D-6 clone) [3, 7] | other results
CC(C)CC[C@H]1C(=O)O[C@@H]2O[C@@]3(C)CC[C@H]4[C@H](C)CC[C@@H]1[C@@]24OO3 [compound 2822] | 0.5 ng/mL (≈ 1.48 nM) | 98 | 0.35 ng/mL (≈ 1.03 nM) | 157 | 
C[C@@H]1CCC[C@@]23CO[C@@](C)(CC[C@@H]12)OO3 [compound 2823] |  |  |  |  | IC50 [3, 10]: 0.8 ng/mL (≈ 3.77 nM); Relative potency (D-6 clone) [3, 11]: 37
CC1C(=O)OC(O[Si](C)(C)C(C)(C)C)C2(OO)CCCCC12 (stereo not shown) [compound 4581] |  |  |  |  | IC50 ([2]; read-out: In vitro IC50 W-2 clone): 2890 ng/mL (≈ 8750 nM); Relative potency (W-2 clone) [2, 9]: 0; IC50 ([3]; read-out: In vitro IC50 D-6 clone): 3020 ng/mL (≈ 9130 nM); Relative potency (D-6 clone) [3, 11]: 0
C[C@@H]1CC[C@H]2CC(=O)O[C@@H]3O[C@@]4(C)CC[C@@H]1[C@@]23OO4 [compound 4584] | 0.31 ng/mL (≈ 1.16 nM) | 650 | 2.32 ng/mL (≈ 8.65 nM) | 180 | 
C[C@@H]1CC[C@H]2CC(=O)N(C)[C@@H]3O[C@@]4(C)CC[C@@H]1[C@@]23OO4 [compound 4585, (-)-Octahydro-3,6,11-trimethyl-3,12-epoxy-12H-pyridino-[4.3-j] 1,2-benzo dioxepin-10(3H)-one] | 0.42 ng/mL (≈ 1.49 nM) | 502 | 2.05 ng/mL (≈ 7.29 nM) | 214 | times as potent as QHS against the W-2 clone ([2]; W-2 clone): 5 times; times as potent as QHS against the D-6 clone ([3]; D-6 clone): 21.7 times
CC[C@H]1C(=O)O[C@@H]2O[C@@]3(C)CC[C@H]4[C@H](C)CC[C@@H]1[C@@]24OO3 [compound 4586] | 0.18 ng/mL (≈ 0.607 nM) | 1226 | 0.72 ng/mL (≈ 2.43 nM) | 642 | times as potent as QHS against the W-2 clone ([2]; W-2 clone): 11.7 times; times as potent as QHS against the D-6 clone ([3]; D-6 clone): 6.17 times
C[C@H]1[C@@H](OOC(C)(C)C)O[C@@H]2O[C@@]3(C)CC[C@H]4[C@H](C)CC[C@@H]1[C@@]24OO3 [compound 4588] | 0.41 ng/mL (≈ 1.15 nM) | 656 | 0.53 ng/mL (≈ 1.49 nM) | 1054 | 
C[C@@H]1CC[C@H]2[C@@H](CC(=O)O)C(=O)O[C@@H]3O[C@@]4(C)CC[C@@H]1[C@]32OO4 [compound 4595] | 151 ng/mL (≈ 463 nM) | 0.3 | 830 ng/mL (≈ 2540 nM) | 0.15 | 
CCC(=O)OCC(CC)(CC)OOC(C)(C)C [compound 4596, 2-t-Butylperoxy-2-ethylbutyl proprionate] |  |  |  |  | In vitro IC50 W-2 clone [2, 9]: Inactive; In vitro IC50 D-6 clone [3, 11]: Inactive
CCCC(=O)OCC(CC)(CC)OOC(C)(C)C [compound 4597, 2-t-Butylperoxy-2-ethylbutyl Butyrate] |  |  |  |  | In vitro IC50 W-2 clone [2, 9]: Inactive; In vitro IC50 D-6 clone [3, 11]: Inactive
CCO[C@H]1O[C@@H]2O[C@@]3(C)CC[C@H]4[C@H](C)CC[C@@H]([C@H]1CC)[C@@]24OO3 [compound 4598] | 0.18 ng/mL (≈ 0.551 nM) | 272 | 0.22 ng/mL (≈ 0.674 nM) | 550 | 
CCC[C@H]1C(=O)O[C@@H]2O[C@@]3(C)CC[C@H]4[C@H](C)CC[C@@H]1[C@@]24OO3 [compound 4599] | 0.04 ng/mL (≈ 0.129 nM) | 1225 | 0.22 ng/mL (≈ 0.709 nM) | 550 | 
CCC[C@H]1[C@@H](OCC)O[C@@H]2O[C@@]3(C)CC[C@H]4[C@H](C)CC[C@@H]1[C@@]24OO3 [compound 4600, (+)-Octahydro-3,6-dimethyl-10β-ethoxy-3,12-epoxy-9β-propyl-12H-pyrano[4.3-j]-1,2-benzodioxepine] | 0.63 ng/mL (≈ 1.85 nM) | 76 | 0.39 ng/mL (≈ 1.15 nM) | 120 | 
CCc1nc(N)nc(N)c1-c1ccc(Cl)cc1 [pyrimethamine, reference compound] | 121 ng/mL (≈ 486 nM) | 2 | 0.35 ng/mL (≈ 1.41 nM) | 1269 | 
(+)-Hexahydro-3,3,7,10α,11β-pentamethyl-4aH,6H-1,2,4-trioxino-[ 6.5-j][2] benzopyran-6-one [compound 4594] |  |  |  |  | In vitro IC50 W-2 clone [2, 9]: 2.06 ng/mL; Relative potency (W-2 clone) [2, 9]: 24; In vitro IC50 D-6 clone [3, 11]: 5.35 ng/mL; Relative potency (D-6 clone) [3, 11]: 23
(-)-4ab,7a,7aa,10β-Hexahydro-3,3,7β,10a-tetramethyl-4aH,6H-trioxino[6.5-j][2]-benzopyran-6-one [compound 4591] |  |  |  |  | In vitro IC50 W-2 clone [2, 9]: 9.71 ng/mL; Relative potency (W-2 clone) [2, 9]: 9; In vitro IC50 D-6 clone [3, 11]: 9.65 ng/mL; Relative potency (D-6 clone) [3, 11]: 8
(-)-Hexahydro-3,3,10a,11β-tetramethyl-4aH,6H-1,2,4-trioxino-[6.5-j]benzopyran-6-one [compound 4592] |  |  |  |  | In vitro IC50 D-6 clone [3, 11]: 1.28 ng/mL; Relative potency (D-6 clone) [3, 11]: 58
